# Data as given in EP4707279A1, “SUBSTITUTED TRICYCLIC HETEROCYCLIC COMPOUND AS PHARMACEUTICAL FOR TREATMENT OR PREVENTION OF COVID-19” (priority 2023, dated 2024).
# System: SARS-CoV-2
# Test: CPE inhibition assay, anti-SARS-CoV-2 virus activity in vitro (Test Example 4)
# Format: cell-based
# Conditions: CPE inhibition at 10 µM; VeroE6-TMPRSS2 cells; MOI 0.01; third day post infection; average of three tests
row,Compound,Anti SARS-CoV-2 activity
1,"Ethyl (6S,9R,11aS)-6-benzyl-11b-hydroxy-2,4.7-trioxo-1,3-bis(thiophen-2-ylmethyl) decahydro-2H-pyrrolo[2',1':3,4] pyrazino[1,2-a][1,3,5] triazine-9-carboxylate [Compound 23A]",A (a CPE inhibition effect of 5% or more)
2,"(6 R,9 S,11aR,11bR)-1,3-Dibenzyl-N-(bicyclo[1,1,1]penta n-1-yl) 11b-Hydroxy-6-isopropyl-2,4,7-trioxodecahydro- 2H-pyrrolo [2"",1"":3,4]pyrazino[ 1,2-a][1,3,5] triazine-9-carboxamide [Compound 3I]",A (a CPE inhibition effect of 5% or more)
3,"Ethyl (6R,9S,11aR,11bR)-1,3-dibenzyl-11b-hydroxy-6-(4-methoxybenzyl)-2,4.7-trioxodecahydro-2H-pyrrolo [2',1':3,4]pyrazino[1,2-a][1,3,5] triazine-9-carboxylate [Compound 6A]",C (less than 1%)
4,"(6R,9S,10aR)-1,3,6-tribenzyl-10b-hydroxy-N-(naphthalen-2-ylmethyl)-2,4,7-trioxodecahydroazeto[2',1 ':3,4]pyrazino[1.2-a][1,3,5]triazine-9-carboxamide [Compound 20D]",A (a CPE inhibition effect of 5% or more)
5,"(6R,10R.11aS)-1,3.6-tribenzyl-10-(benzyl oxy)-11b-hydroxyhexahydro-2H-pyrrolo [2',1':3,4]pyridazino[1,2-a][1,3,5 triazine-2,4,7(3H.6H)-trione [Compound 14A]",B (a CPE inhibition effect of less than 5% but 1% or more)
6,"Ethyl (6R,9S,11aR)-11b-hydroxy-6-isopropyl-2.4,7-trioxo-1,3-bis(thiophen-2-ylmethyl)decahydro-2H-pyrrolo[2',1':3,4] pyrazino[1,2-a][1,3,5] triazine-9-carboxylate [Compound 27A]",A (a CPE inhibition effect of 5% or more)
7,"O=C(NCc1ccc2ccccc2c1)[C@@H]1CC[C@H]2N1C(=O)[C@@H](Cc1ccccc1)N1C(=O)N(CC3CCCC3)C(=O)N(CC3CCCC3)[C@]21O [Compound 17D, (6R,9S,11aR,11bR)-6-Benzyl-1,3-bis (cyclopentylmethyl)-11b-h ydroxy-N-(naphthalen-2-ylmethyl)-2,4,7-trioxodecahydro-2H-pyrrolo[2',1':3,4] pyridazino[1,2-a][1,3,5] triazine-9-carboxamide]",A (a CPE inhibition effect of 5% or more)
8,"(6S,9R,11aS,11bS)-1,3,6-Tribenzyl-11b-hydroxy-N-(naphthalen-2-ylmethyl)-2,4 ,7-trioxo-2H-pyrrolo [2',1':3,4]pyrazino [1,2-a][1,3,5]triazine-9-carboxamide [Compound 4D]",A (a CPE inhibition effect of 5% or more)
9,"(6R,9S,11aR,11bR)-6-benzyl-11b-hydroxy-N-(naphthalen-2-ylmethyl)-2 ,4,7-trioxo-1,3-bis (thien-2-ylmethyl) decahydro-2H-pyrrolo [2',1':3,4]pyridazino[1,2-a] [1.3,5]triazine-9-carboxamide [Compound 18D]",C (less than 1%)
10,"(6R,9S,11aR,11bR)-1,3-Dibenzyl-11b-hydroxy-6-(4 -methoxybenzyl)-N-(naphthalen-2-ylmethyl)-2,4,7-trioxodecahydro-2H-pyrrolo[2',1':3,4] pyridazino[1,2-a][1.3.5] triazine-9-carboxamide [Compound 6D]",B (a CPE inhibition effect of less than 5% but 1% or more)
11,"Ethyl (6R,9S,11aR,11bR)-1,3-dibenzyl-11b-hydroxy-6-methyl-2,4,7-trioxodecahydro-2H-pyrrolo[2',1':3,4]pyrazino[1,2-a] [1.3.5]triazine-9-carboxylate [Compound 2A]",C (less than 1%)

# Same assay, conditions: Severe acute respiratory syndrome coronavirus 2, VeroE6/TMPRSS2, 72 h, read-out: Anti SARS-CoV-2 activity
row,Compound,inhibition at 10 µM [%]
1,"CC(C)[C@@H]1C(=O)N2[C@H](C(=O)NCc3cnc4ccccc4c3)CC[C@@H]2[C@@]2(O)N(Cc3ccco3)C(=O)N(Cc3ccco3)C(=O)N12 [Compound 28F, (6R,9S,11aR,11bR)-1,3-bis(2-furylmethyl)-11b-hydroxy-6-isopropyl-2,4,7-trioxo-N-(3-quinolylmethyl)decahydro-2H-pyrrolo[2',1':3,4]pyrazino[1,2-a][1,3,5]triazine-9-carboxamide]",> 5
2,"O=C1[C@@H](Cc2ccccc2)N2C(=O)N(Cc3ccccc3)C(=O)N(Cc3ccccc3)C2=C2CCCN12 [Compound 9B, (R) 1.3.6-Tribenzyl-1,9,10,11-tetrahydro-2H-pyrrolo[2',1':3,4] pyridazino[1,2-a][1,3,5]triazine-2,4,7(3H,6H)-trione]",< 1
3,"O=C(NCc1ccc2ccccc2c1)[C@@H]1CCC2=C3N(c4ccccc4)C(=O)N(c4ccccc4)C(=O)N3[C@H](Cc3ccccc3)C(=O)N21 [Compound 16E, (6R,9S)-6-Benzyl-N-(naphthalen-2-ylmethyl)-2,4,7-trioxo-1,3-diphenyl-1,3,4,6,7,9,10,11-octahydro-2H-pyrrolo [2',1':3,4]pyrazino[1,2-a][1,3,5]triazine-9-carboxamide]",1 to 5
4,"O=C(NCc1ccc2ccccc2c1)[C@H]1CCC2=C3N(Cc4ccccc4)C(=O)N(Cc4ccccc4)C(=O)N3[C@@H](Cc3ccccc3)C(=O)N21 [Compound 4E, (6S,9R)-1,3,6-Tribenzyl-N-(naphthalen-2-ylmethyl)-2,4,7-trioxo-1,3,4,6,7,9,10,1 1-octahydro-2H-pyrrolo [2',1':3,4]pyrazino[1,2-a] [1,3,5]triazine-9-carboxamide]",1 to 5
5,"COC(=O)[C@@H]1CCC[C@H]2N1C(=O)[C@@H](Cc1ccccc1)N1C(=O)N(Cc3ccccc3)C(=O)N(Cc3ccccc3)C21O (stereo partly drawn) [Compound 25A, Methyl (6R,9S,12aR)-1,3,6-tribenzyl-12b-hydroxy-2,4,7-trioxododecahydropyri do[2',1':3,4]pyrazino[1,2-a][1,3,5]triazine-9-carboxylate]",> 5
6,"O=C(NCc1ccc2ccccc2c1)[C@@H]1CCC2=C3N(Cc4ccccc4)C(=O)N(Cc4ccccc4)C(=O)N3[C@H](CC3CCCC3)C(=O)N21 [Compound 8E, (6R,9S)-1,3-Dibenzyl-6-(cyclopentylmethyl)-N-(naphthalen-2-ylmethyl)-2,4,7-trioxo-1,3,4,6,7,9,10,11-octahydro-2H-pyrrolo [2',1':3,4]pyrazino[1,2-a] [1,3,5]triazine-9-carboxamide]",< 1
7,"O=C1[C@@H](Cc2ccccc2)N2C(=O)N(Cc3ccccc3)C(=O)N(Cc3ccccc3)C2=C2CCCCN12 [Compound 13B, (R) 1,3,6-Tribenzyl-9,10,11,12-tetrahydropyrido[2',1':3,4] pyrazino[1,2-a][1,3,5]triazine-2,4,7(1H,3H,6H)-trione]",1 to 5
8,"CC[C@@]1(C(C)C)C(=O)N2[C@H](C(=O)NCc3ccc4ccccc4c3)CC[C@@H]2[C@@]2(O)N(Cc3ccccc3)C(=O)N(Cc3ccccc3)C(=O)N21 [Compound 29D, (6R,9S,11aR,11bR)-1,3-Dibenzyl-6-ethyl-11b-hydroxy-6-isopropyl-N-(naphthalen-2-ylmethyl)-2,4,7-trioxodecahydro-2H-pyrrolo[2',1':3,4] pyrazino[1,2-a][1,3,5] triazine-9-carboxamide]",> 5
